This note sets out measurements from US8858988B2, “Compositions comprising extracts of Boswellia, tea tree, aloe and lavender oil and methods of treating wounds, burns and skin injuries therewith” (CuraPhyte Technologies Inc., priority 2009, dated 2014).

Marks after values point to notes of the source that are not given here.

The subject of this test is mouse cutaneous injury model. Nature of the test: Wound healing in mouse cutaneous injury model. Type of test: in vivo. To be noted: TOP. The protocol:
Animal model: Groups of 8 ICR male mice weighing 22±2 g were used. Under ether anesthesia, the shoulder and back region of each animal was shaved. A sharp punch (ID 12 mm) was used to remove the skin including panniculus carnosus and adherent tissues. The wound area, traced onto clear plastic sheets on days 3, 5, 7, 9 and 11, were quantitated by use of an Image Analyzer (Life Science Resources VISTA, Version 30). Test compound and vehicle (20 μl, 1.5% carboxymethylcellulose in PBS) were applied topically immediately following injury and in single, two or three applications daily thereafter for a total of 10 consecutive days. The wound half-closure time (CT50) was determined and unpaired Student's t test was applied for comparison between treated and vehicle group at each measurement time point. Differences are considered statistical significance at P<0.05. CGS-21680 ((2-p-carboxyethyl)phenylamino-5′-N-carboxamidoadenosine) was used as a positive comparator. Test substance C-T-1001 (Ointment A: herbal active ingredients tea tree oil, boswellia resin, aloe vera gel and lavender oil) was evaluated for possible wound healing activity. The test substance was applied topically to the wound area once, twice, or three times daily for 10 consecutive days. Percent closure of the wound (%) was determined on days 3, 5, 7, 9 and 11 in order to generate the half closure time (CT50). One-way ANOVA followed by Dunnett's test was used to determine significant difference between the treated groups and vehicle control.

Take `CCNC(=O)[C@H]1O[C@@H](n2cnc3c(N)nc(NCCc4ccc(CCC(=O)O)cc4)nc32)[C@H](O)[C@@H]1O` [CGS-21680]: the “The Closure of Wound (%) Day 3” value (10 μg/mouse × 10, Day 3, mean (X)) is recorded as 42.4* %. In addition, for the setting “10 μg/mouse × 10, Day 5, mean (X)”, the “The Closure of Wound (%) Day 5” value is reported as 56.3* %. Where the note is “10 μg/mouse × 10, Day 7, mean (X)”, the “The Closure of Wound (%) Day 7” value is 66.8* %. Besides, the “The Closure of Wound (%) Day 9” value (10 μg/mouse × 10, Day 9, mean (X)) was 74.3* %. Also, the “The Closure of Wound (%) Day 11” value (10 μg/mouse × 10, Day 11, mean (X)) is listed as 81.7* %. Besides, the “CT50 (Days), wound half-closure time” value (10 μg/mouse × 10, mean (X)) is recorded as 5.5* Days.
